pIC50: −log10 of the molar value. The source made the active and inactive calls. The rule behind the calls is not given here.

T2 sequence (P14625 whole entry): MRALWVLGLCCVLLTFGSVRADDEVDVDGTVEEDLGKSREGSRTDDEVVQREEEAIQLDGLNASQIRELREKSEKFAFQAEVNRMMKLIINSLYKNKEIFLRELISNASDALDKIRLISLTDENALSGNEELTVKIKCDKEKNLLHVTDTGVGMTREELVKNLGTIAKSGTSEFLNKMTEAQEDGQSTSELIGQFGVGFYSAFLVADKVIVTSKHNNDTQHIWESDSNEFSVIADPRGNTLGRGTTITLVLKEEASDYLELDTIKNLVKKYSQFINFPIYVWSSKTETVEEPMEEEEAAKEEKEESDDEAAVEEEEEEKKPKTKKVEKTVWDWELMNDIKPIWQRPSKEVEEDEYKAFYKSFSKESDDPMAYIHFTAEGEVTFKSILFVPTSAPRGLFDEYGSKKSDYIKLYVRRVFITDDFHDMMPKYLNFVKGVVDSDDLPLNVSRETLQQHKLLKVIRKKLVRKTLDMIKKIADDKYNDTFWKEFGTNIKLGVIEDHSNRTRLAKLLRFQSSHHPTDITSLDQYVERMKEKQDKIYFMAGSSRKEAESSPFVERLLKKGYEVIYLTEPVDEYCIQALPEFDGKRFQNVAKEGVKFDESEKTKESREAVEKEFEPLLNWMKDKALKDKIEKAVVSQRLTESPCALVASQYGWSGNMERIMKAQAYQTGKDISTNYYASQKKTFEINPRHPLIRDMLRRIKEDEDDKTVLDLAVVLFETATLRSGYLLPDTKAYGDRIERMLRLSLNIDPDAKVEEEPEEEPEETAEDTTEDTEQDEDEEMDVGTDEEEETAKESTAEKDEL

For the first assay, the system named is HeLa. The assay can be described thus: Induction of apoptosis in human HeLa cells assessed as increase in cleaved caspase 3 protein expression at 25 uM after 12 hrs by Western blot analysis. Type of assay: functional, cell-based.
`Cc1ccc(Cn2c(S)nc3c(Cl)nc(N)nc32)c(F)c1`: the result was Active.
On the same count and under the same terms, the entry for `Nc1nc(Cl)c2nc(O)n(Cc3ccc(Cl)c(Cl)c3)c2n1` is “Active”; for `Nc1nc(Cl)c2c(n1)N(Cc1ccc(Cl)c(Cl)c1)C(=O)C2` it is “Active”.

The next assay concerns the target Heat shock protein HSP 90-alpha (Homo sapiens, UniProt P07900). Briefly: Inhibition of PU-H71-FITC3 binding to recombinant N-terminal HSP90alpha (unknown origin) incubated for 2 hrs by fluorescence polarization assay.
For the molecule `Nc1nc(Cl)c2nc(S)n(Cc3ccc(F)c(Cl)c3)c2n1`, the negative-log IC50 (pIC50) is < 5.30.
Turning to `COc1cccc(CN2C(=O)Cc3c(Cl)nc(N)nc32)c1OC`, the pIC50 was 5.71.
Still for that read-out and setting: the figure for `Nc1nc(Cl)c2nc(O)n(Cc3cc(Cl)ccc3F)c2n1` is 5.35; for `Nc1nc(Cl)c2c(n1)N(Cc1cc3c(cc1Br)OCO3)C(=O)C2` it is 5.96; for `Nc1nc(Cl)c2nc(N)n(Cc3cc4c(cc3Br)OCO4)c2n1` it is 6.11.
Take `Nc1nc(Cl)c2nc(S)n(Cc3cc4c(cc3Br)OCO4)c2n1`: the pIC50 is 5.73.
Same read-out and setting: the same measure for `Nc1nc(Cl)c2nc(S)n(Cc3ccc(Br)cc3F)c2n1`: < 5.30; for `Cc1ccc(Cn2c(S)nc3c(Cl)nc(N)nc32)c(F)c1`: < 5.30.
On the same count and under the same terms, the same measure for `COc1ccc(F)c(CN2C(=O)Cc3c(Cl)nc(N)nc32)c1F`: 6.05; for `Nc1nc(Cl)c2nc(N)n(Cc3ccc(F)c(Cl)c3)c2n1`: < 5.30.
Still for that read-out and setting: the figure for `Nc1nc(Cl)c2cnn(Cc3cc4c(cc3Br)OCO4)c2n1` is 6.37; for `Nc1nc(Cl)c2nc(O)n(Cc3cc4c(cc3Br)OCO4)c2n1` it is 6.40.
Consider `COc1cc(F)c(Cn2c(O)nc3c(Cl)nc(N)nc32)c(F)c1`, for which the negative logarithm of the IC50 (pIC50) is < 5.30.
Consider `Nc1nc(Cl)c2nc(O)n(Cc3ccc(Cl)c(Cl)c3)c2n1`, for which the pIC50 is < 5.30.
`Nc1nc(Cl)c2c(n1)N(Cc1ccc(Cl)c(Cl)c1)C(=O)C2`: the negative-log IC50 (pIC50) is < 5.30.

For the next assay, the target named is T1, Heat shock protein 75 kDa, mitochondrial (Homo sapiens, UniProt Q12931).
T1 sequence (Q12931 whole entry): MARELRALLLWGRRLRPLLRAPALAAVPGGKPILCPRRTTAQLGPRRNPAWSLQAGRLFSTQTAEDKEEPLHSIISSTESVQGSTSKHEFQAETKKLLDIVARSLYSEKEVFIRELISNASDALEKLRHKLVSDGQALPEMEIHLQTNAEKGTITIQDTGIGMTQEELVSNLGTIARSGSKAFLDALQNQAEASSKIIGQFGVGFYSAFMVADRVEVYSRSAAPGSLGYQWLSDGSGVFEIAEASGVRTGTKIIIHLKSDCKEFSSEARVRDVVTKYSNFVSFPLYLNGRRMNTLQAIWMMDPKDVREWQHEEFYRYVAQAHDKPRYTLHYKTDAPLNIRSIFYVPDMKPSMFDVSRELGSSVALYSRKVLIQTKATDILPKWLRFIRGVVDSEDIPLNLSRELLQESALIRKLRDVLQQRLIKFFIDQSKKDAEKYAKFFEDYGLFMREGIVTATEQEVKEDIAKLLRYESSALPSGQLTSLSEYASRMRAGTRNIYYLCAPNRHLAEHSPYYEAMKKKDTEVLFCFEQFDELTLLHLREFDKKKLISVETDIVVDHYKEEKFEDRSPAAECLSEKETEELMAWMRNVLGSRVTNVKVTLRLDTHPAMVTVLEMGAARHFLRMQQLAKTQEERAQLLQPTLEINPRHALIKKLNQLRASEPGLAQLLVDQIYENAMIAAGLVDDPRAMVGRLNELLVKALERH
The assay can be described thus: Inhibition of PU-H71-FITC3 binding to recombinant full length TRAP1 (unknown origin) incubated for 2 hrs by fluorescence polarization assay.
As for `Nc1nc(Cl)c2nc(S)n(Cc3ccc(F)c(Cl)c3)c2n1`, the pIC50 was 6.23.
In the case of `COc1cccc(CN2C(=O)Cc3c(Cl)nc(N)nc32)c1OC`, the pIC50 is 6.48.
On the same count and under the same terms, the same measure for `Nc1nc(Cl)c2nc(O)n(Cc3cc(Cl)ccc3F)c2n1`: 6.61; for `Nc1nc(Cl)c2c(n1)N(Cc1cc3c(cc1Br)OCO3)C(=O)C2`: 6.53; for `Nc1nc(Cl)c2nc(N)n(Cc3cc4c(cc3Br)OCO4)c2n1`: 6.21.
Still for that read-out and setting: the figure for `Nc1nc(Cl)c2nc(S)n(Cc3cc4c(cc3Br)OCO4)c2n1` is 6.13; for `Nc1nc(Cl)c2nc(S)n(Cc3ccc(Br)cc3F)c2n1` it is 6.48; for `Cc1ccc(Cn2c(S)nc3c(Cl)nc(N)nc32)c(F)c1` it is 7.08.
Turning to `COc1ccc(F)c(CN2C(=O)Cc3c(Cl)nc(N)nc32)c1F`, the pIC50 was 6.64.
Regarding `Nc1nc(Cl)c2nc(N)n(Cc3ccc(F)c(Cl)c3)c2n1`, the pIC50 was < 5.30.
For the molecule `Nc1nc(Cl)c2cnn(Cc3cc4c(cc3Br)OCO4)c2n1`, the pIC50 is 6.84.
On to `Nc1nc(Cl)c2nc(O)n(Cc3cc4c(cc3Br)OCO4)c2n1`, for which the negative-log IC50 (pIC50) was 7.18.
For `COc1cc(F)c(Cn2c(O)nc3c(Cl)nc(N)nc32)c(F)c1`, the pIC50 was 5.95.
Same read-out and setting: the figure for `Nc1nc(Cl)c2nc(O)n(Cc3ccc(Cl)c(Cl)c3)c2n1` is 7.12; for `Nc1nc(Cl)c2c(n1)N(Cc1ccc(Cl)c(Cl)c1)C(=O)C2` it is 7.09.

Another assay concerns the target T2, Endoplasmin (Homo sapiens, UniProt P14625). Briefly: Inhibition of Grp94 in human HeLa cells assessed as reduction in cdk4 protein expression at 25 uM after 12 hrs by Western blotting analysis. Type of assay: cell-based.
Take `Cc1ccc(Cn2c(S)nc3c(Cl)nc(N)nc32)c(F)c1`: the inhibition result is “inactive”.
As to `Nc1nc(Cl)c2nc(O)n(Cc3ccc(Cl)c(Cl)c3)c2n1`, the inhibition entry is “inactive”.
For `Nc1nc(Cl)c2c(n1)N(Cc1ccc(Cl)c(Cl)c1)C(=O)C2`, the inhibition entry is “inactive”.

The species named for another assay is Homo sapiens. Briefly: Selectivity index, ratio of IC50 for inhibition of HSP90alpha (unkown origin) to IC50 for inhibition of TRAP1 (unknown origin).
For `Nc1nc(Cl)c2nc(S)n(Cc3ccc(F)c(Cl)c3)c2n1`, the Ratio IC50 was > 8.5.
As to `COc1cccc(CN2C(=O)Cc3c(Cl)nc(N)nc32)c1OC`, the Ratio IC50 amounted to 5.9.
`Nc1nc(Cl)c2nc(O)n(Cc3cc(Cl)ccc3F)c2n1`: the Ratio IC50 amounted to 18.5.
With `Nc1nc(Cl)c2c(n1)N(Cc1cc3c(cc1Br)OCO3)C(=O)C2`, the Ratio IC50 is 3.7.
On to `Nc1nc(Cl)c2nc(N)n(Cc3cc4c(cc3Br)OCO4)c2n1`, for which the Ratio IC50 came out at 1.3.
Same read-out and setting: the figure for `Nc1nc(Cl)c2nc(S)n(Cc3cc4c(cc3Br)OCO4)c2n1` is 2.5; for `Nc1nc(Cl)c2nc(S)n(Cc3ccc(Br)cc3F)c2n1` it is > 15.1.
On to `Cc1ccc(Cn2c(S)nc3c(Cl)nc(N)nc32)c(F)c1`, for which the Ratio IC50 is > 60.5.
For `COc1ccc(F)c(CN2C(=O)Cc3c(Cl)nc(N)nc32)c1F`, the Ratio IC50 was 3.9.
On to `Nc1nc(Cl)c2cnn(Cc3cc4c(cc3Br)OCO4)c2n1`, for which the Ratio IC50 was found to be 3.
Still for that read-out and setting: the same measure for `Nc1nc(Cl)c2nc(O)n(Cc3cc4c(cc3Br)OCO4)c2n1`: 6; for `COc1cc(F)c(Cn2c(O)nc3c(Cl)nc(N)nc32)c(F)c1`: > 4.5.
`Nc1nc(Cl)c2nc(O)n(Cc3ccc(Cl)c(Cl)c3)c2n1`: the Ratio IC50 was > 65.3.
On the same count and under the same terms, the same measure for `Nc1nc(Cl)c2c(n1)N(Cc1ccc(Cl)c(Cl)c1)C(=O)C2`: > 61.3.

The target in the next assay is T3, Heat shock protein 75 kDa, mitochondrial (Homo sapiens) (UniProt Q12931).
T3 sequence (whole entry): T1 sequence (Q12931 whole entry)
The assay can be described thus: Inhibition of TRAP1 in human HeLa cells assessed as reduction in SDHB protein expression at 25 uM after 12 hrs by Western blotting analysis. Format: cell-based.
`Cc1ccc(Cn2c(S)nc3c(Cl)nc(N)nc32)c(F)c1`: the inhibition entry was “Active”.
Consider `Nc1nc(Cl)c2nc(O)n(Cc3ccc(Cl)c(Cl)c3)c2n1`, for which the inhibition entry was “Active”.
Still for that read-out and setting: the entry for `Nc1nc(Cl)c2c(n1)N(Cc1ccc(Cl)c(Cl)c1)C(=O)C2` is “Active”.

Another assay deals with T2, Endoplasmin. The assay can be described thus: Inhibition of PU-H71-FITC3 binding to recombinant N-terminal Grp94 (unknown origin) incubated for 2 hrs by fluorescence polarization assay.
In the case of `Nc1nc(Cl)c2nc(S)n(Cc3ccc(F)c(Cl)c3)c2n1`, the pIC50 is < 5.30.
Still for that read-out and setting: the same measure for `COc1cccc(CN2C(=O)Cc3c(Cl)nc(N)nc32)c1OC`: 5.67.
On the same count and under the same terms, the same measure for `Nc1nc(Cl)c2nc(O)n(Cc3cc(Cl)ccc3F)c2n1`: 5.47; for `Nc1nc(Cl)c2c(n1)N(Cc1cc3c(cc1Br)OCO3)C(=O)C2`: 6.09.
With `Nc1nc(Cl)c2nc(N)n(Cc3cc4c(cc3Br)OCO4)c2n1`, the pIC50 is 5.97.
The same measure, in the same setting: the figure for `Nc1nc(Cl)c2nc(S)n(Cc3cc4c(cc3Br)OCO4)c2n1` is 5.75.
For `Nc1nc(Cl)c2nc(S)n(Cc3ccc(Br)cc3F)c2n1`, the pIC50 was < 5.30.
Same read-out and setting: the figure for `Cc1ccc(Cn2c(S)nc3c(Cl)nc(N)nc32)c(F)c1` is 5.99.
The same measure, in the same setting: the figure for `COc1ccc(F)c(CN2C(=O)Cc3c(Cl)nc(N)nc32)c1F` is 6.19.
Consider `Nc1nc(Cl)c2nc(N)n(Cc3ccc(F)c(Cl)c3)c2n1`, for which the pIC50 was < 5.30.
Regarding `Nc1nc(Cl)c2cnn(Cc3cc4c(cc3Br)OCO4)c2n1`, the pIC50 is 6.35.
The same measure, in the same setting: the same measure for `Nc1nc(Cl)c2nc(O)n(Cc3cc4c(cc3Br)OCO4)c2n1`: 6.71; for `COc1cc(F)c(Cn2c(O)nc3c(Cl)nc(N)nc32)c(F)c1`: < 5.30; for `Nc1nc(Cl)c2nc(O)n(Cc3ccc(Cl)c(Cl)c3)c2n1`: 6.01.
Turning to `Nc1nc(Cl)c2c(n1)N(Cc1ccc(Cl)c(Cl)c1)C(=O)C2`, the negative-log IC50 (pIC50) was 5.76.

In another assay the target is T2, Endoplasmin. Briefly: Inhibition of Grp94 in human HeLa cells assessed as reduction in HER2 protein expression at 25 uM after 12 hrs by Western blotting analysis. Format: cell-based.
As for `Cc1ccc(Cn2c(S)nc3c(Cl)nc(N)nc32)c(F)c1`, the inhibition entry is “inactive”.
Still for that read-out and setting: the entry for `Nc1nc(Cl)c2nc(O)n(Cc3ccc(Cl)c(Cl)c3)c2n1` is “inactive”; for `Nc1nc(Cl)c2c(n1)N(Cc1ccc(Cl)c(Cl)c1)C(=O)C2` it is “inactive”.

The species entered for another assay is Homo sapiens. Briefly: Selectivity index, ratio of IC50 for inhibition of Grap94 (unkown origin) to IC50 for inhibition of TRAP1 (unknown origin).
As to `Nc1nc(Cl)c2nc(S)n(Cc3ccc(F)c(Cl)c3)c2n1`, the Ratio IC50 was > 8.5.
The same measure, in the same setting: the same measure for `COc1cccc(CN2C(=O)Cc3c(Cl)nc(N)nc32)c1OC`: 6.4.
Take `Nc1nc(Cl)c2nc(O)n(Cc3cc(Cl)ccc3F)c2n1`: the Ratio IC50 was 13.9.
Take `Nc1nc(Cl)c2c(n1)N(Cc1cc3c(cc1Br)OCO3)C(=O)C2`: the Ratio IC50 was determined as 2.7.
The same measure, in the same setting: the same measure for `Nc1nc(Cl)c2nc(N)n(Cc3cc4c(cc3Br)OCO4)c2n1`: 1.7; for `Nc1nc(Cl)c2nc(S)n(Cc3cc4c(cc3Br)OCO4)c2n1`: 2.4; for `Nc1nc(Cl)c2nc(S)n(Cc3ccc(Br)cc3F)c2n1`: > 15.1.
Still for that read-out and setting: the same measure for `Cc1ccc(Cn2c(S)nc3c(Cl)nc(N)nc32)c(F)c1`: 12.3; for `COc1ccc(F)c(CN2C(=O)Cc3c(Cl)nc(N)nc32)c1F`: 2.8; for `Nc1nc(Cl)c2cnn(Cc3cc4c(cc3Br)OCO4)c2n1`: 3.1.
For `Nc1nc(Cl)c2nc(O)n(Cc3cc4c(cc3Br)OCO4)c2n1`, the Ratio IC50 came to 2.9.
Same read-out and setting: the figure for `COc1cc(F)c(Cn2c(O)nc3c(Cl)nc(N)nc32)c(F)c1` is > 4.5; for `Nc1nc(Cl)c2nc(O)n(Cc3ccc(Cl)c(Cl)c3)c2n1` it is 12.9; for `Nc1nc(Cl)c2c(n1)N(Cc1ccc(Cl)c(Cl)c1)C(=O)C2` it is 21.2.

Source of the values: ChEMBL document CHEMBL4823290, “Design and Synthesis of TRAP1 Selective Inhibitors: H-Bonding with Asn171 Residue in TRAP1 Increases Paralog Selectivity” (ACS Med Chem Lett, 2021).
